Converted amounts (≈) assume the structure as drawn. “Also recorded” adds a separate entry of the source. Structures can show the parent of a compound that is named as a salt.
Experiments:
[1] = system: influenza virus, Adachi strain of A2-type; assay: microbe, parasite or virus in culture; assay type: cell-based; conditions: for virus proliferation-inhibiting index: 50% toxicity concentration / 50% virus proliferation-inhibiting concentration, 2880 min; for IC50: 48 h, read-out: 50% Virus Proliferation-Inhibiting Concentration
[2] = system: rice blast fungus (Pyricularia oryzae); assay: whole plant or invertebrate; assay type: in vivo; conditions: 168 h, read-out: Protective Value
in vitro = conditions: chicken, chorioallantoic membrane
Pyricularia oryzae = conditions: Bokin Bobai, Vol. 9, No. 12, pages 551 to 561 (1981); cited from earlier work
[3] = system: rice blast fungus (Pyricularia oryzae); assay type: in vivo; conditions: low dosage; for Protective Value: 100 ppm; for controlling effect against rice blast: Table 4
plant pathogenic fungi = conditions: foregoing literature; cited from earlier work
[4] = system: influenza virus, Adachi strain of A2-type; assay: microbe, parasite or virus in culture; assay type: cell-based; conditions: for virucidal index: 50% toxicity concentration / 50% virucidal concentration; for EC50: 2 h, read-out: 50% Virucidal Concentration
[5] = acute toxicity (LD50) by intraperitoneal administration to mice; conditions: mouse, in vivo, ip
Source text: In evaluating acute toxicity (LD50 value) of the compounds of this invention, compound number 4 and compound number 25 of Table 1, respectively, were selected and examined for their acute toxicities by intraperitoneal administration to mice.

SMILES	virus proliferation-inhibiting index [1]	IC50 [1]	pest or weed control at 400 ppm [2]	CC50 at 48 h (in vitro)	further results
CSC(=N)NN=Cc1cc(Cl)cc(Cl)c1O [Compound 14]	> 66.7	15 µg/mL (≈ 53.9 µM)	98%	> 1000 µg/mL	
COc1ccc(C(C)=NNC(=N)SC)cc1 [Compound 35]	7.0	14.2 µg/mL (≈ 59.8 µM)	100%	99.4 µg/mL (≈ 419 µM)	
CSC(=N)NN=C(C)c1ccc(O)cc1 [Compound 34]			93%		
CN=C(NN=Cc1ccc(Cl)c(Cl)c1)SC [Compound 10]			88%		MIC Value in Literature (Pyricularia oryzae): 12.5 µg/mL (≈ 45.3 µM); Protective Value [3]: 67%; controlling effect against rice blast [3]: low protective values
CCCCSC(=N)NN=Cc1ccc(OCC)cc1 [Compound 19]	> 25.2	39.7 µg/mL (≈ 142 µM)	100%	> 1000 µg/mL	effect against plant pathogenic fungi in vitro (plant pathogenic fungi): never been observed to have effects of inhibiting proliferation of any of the pathogenic fungi; Protective Value [3]: 93%; controlling effect against rice blast [3]: very excellent controlling effects; virucidal index [4]: 3.2; EC50 [4]: 316 µg/mL (≈ 1130 µM)
NC12CC3CC(CC(C3)C1)C2 [Am, Adamantaneamine Hydrochloride, reference compound]	30.4	32.9 µg/mL		1000 µg/mL	virucidal index [4]: 1.5; EC50 [4]: 649 µg/mL
CSC(=N)NN=Cc1cccc(Cl)c1 [Compound 4]	> 54.0	18.5 µg/mL (≈ 81.2 µM)	100%	> 1000 µg/mL	LD50 [5]: 200 mg/kg; virucidal index [4]: 5.7; EC50 [4]: 175 µg/mL (≈ 768 µM)
CSC(=N)NN=Cc1ccc(Cl)cc1Cl [Compound 8]	35.7	19.8 µg/mL (≈ 75.5 µM)	97%	706 µg/mL (≈ 2690 µM)	virucidal index [4]: 15.2; EC50 [4]: 46.4 µg/mL (≈ 177 µM)
CSC(=N)NN=C(C)c1ccc(Cl)cc1 [Compound 25]	24.6	14.4 µg/mL (≈ 59.6 µM)	100%	354 µg/mL (≈ 1470 µM)	LD50 [5]: 150 mg/kg; virucidal index [4]: 1.7; EC50 [4]: 215 µg/mL (≈ 889 µM)
CCCCCCOc1ccc(C=CC(C)=NNC(=N)SC)cc1 [Compound 45]			96%		
CSC(=N)NN=C(C)c1ccc(Cl)c(Cl)c1Cl [Compound 31]	16.6	21.3 µg/mL (≈ 68.6 µM)	89%	354 µg/mL (≈ 1140 µM)	
CCCCSC(=N)NN=C(C)c1ccc(Cl)c(Cl)c1Cl [Compound 32]			96%		
CCOc1ccc(C=NNC(=N)SC)cc1 [Compound 18]			100%		effect against plant pathogenic fungi in vitro (plant pathogenic fungi): never been observed to have effects of inhibiting proliferation of any of the pathogenic fungi; Protective Value [3]: 99%; controlling effect against rice blast [3]: very excellent controlling effects
CCCC(=NNC(=N)SC)c1ccccc1 [Compound 23]			93%		
CCCCCCCCOc1ccc(C=CC(C)=NNC(=N)SC)cc1OC [Compound 47]			96%		
CCCCSC(=N)NN=C(C)c1ccc(OC)cc1 [Compound 36]			95%		
CSC(=N)NN=C(C)C=Cc1ccc(Cl)cc1 [Compound 42]	7.1	100 µg/mL (≈ 373 µM)	88%	710 µg/mL (≈ 2650 µM)	virucidal index [4]: 4.2; EC50 [4]: 170 µg/mL (≈ 635 µM)
CN=C(NN=Cc1cccc(Cl)c1)SC [Compound 5, 3'-Chlorobenzaldehyde-S-methyl-4-N-methylisothiosemicarbazone Hydrochloride]			93%		
CSC(=N)NN=C(C)c1ccc(C)cc1 [Compound 33]	20.0	50 µg/mL (≈ 226 µM)	97%	1000 µg/mL (≈ 4520 µM)	
CCCCCOc1ccc(C(C)=NNC(=N)SCCCC)cc1 [Compound 39]			100%		
CSC(=N)NN=C(C)c1ccc(Cl)cc1Cl [Compound 29]	7.7	23.2 µg/mL (≈ 84 µM)	90%	180 µg/mL (≈ 652 µM)	virucidal index [4]: 1.8; EC50 [4]: 100 µg/mL (≈ 362 µM)
CCCCOc1ccc(C=NNC(=N)SC)cc1 [Compound 20]			99%		effect against plant pathogenic fungi in vitro (plant pathogenic fungi): never been observed to have effects of inhibiting proliferation of any of the pathogenic fungi; Protective Value [3]: 100%; controlling effect against rice blast [3]: very excellent controlling effects
CSC(=N)NN=Cc1ccccc1Cl [Compound 3]			96%		
CCCC(=NNC(=N)SC)c1ccc(Cl)cc1 [Compound 27]			100%		

SMILES	virus proliferation-inhibiting index [1]	IC50 [1]	pest or weed control at 400 ppm [2]	CC50 at 48 h (in vitro)	further results
CCCCCOc1ccc(C(C)=NNC(=N)SC)cc1 [Compound 38]	> 8.0	126 µg/mL (≈ 429 µM)	100%	> 1000 µg/mL	effect against plant pathogenic fungi in vitro (plant pathogenic fungi): inactive against all of the plant pathogenic fungi
CSC(=N)NN=Cc1c(Cl)cccc1Cl [Compound 12]			100%		
CSC(=N)NN=Cc1ccc(Cl)c(Cl)c1 [Compound 11, 3',4'-Dichlorobenzaldehyde-S-methylisothiosemicarbazone Hydrochloride]	33.2	21.3 µg/mL	98%	707 µg/mL	virucidal index [4]: 15.2; EC50 [4]: 46.4 µg/mL
CSC(=N)NN=C(C)c1ccc(Cl)c(Cl)c1 [Compound 30]			88%		MIC Value in Literature (Pyricularia oryzae): 12.5 µg/mL (≈ 45.3 µM); Protective Value [3]: 66%; controlling effect against rice blast [3]: low protective values
CCCCSC(=N)NN=Cc1ccc(Cl)cc1Cl [Compound 9, 2',4'-Dichlorobenzaldehyde-S-butylisothiosemicarbazone Hydrochloride]	5.5	115 µg/mL	100%	632 µg/mL	virucidal index [4]: 19.9; EC50 [4]: 31.6 µg/mL
CCCCCCCCCCOc1ccc(C(C)=NNC(=N)SC)cc1 [Compound 41]	< 5.0	> 200 µg/mL	94%	1000 µg/mL (≈ 2750 µM)	virucidal index [4]: 6.9; EC50 [4]: 145 µg/mL (≈ 399 µM)
CCCCSC(=N)NN=Cc1ccc(F)cc1 [Compound 15]			93%		
CSC(=N)NN=Cc1cc(Cl)cc(Cl)c1 [Compound 13]	14.0	50 µg/mL (≈ 191 µM)	100%	700 µg/mL (≈ 2670 µM)	
CSC(=N)NN=Cc1ccc(C)cc1 [Compound 17]			100%		
CC(=NNC(=N)SCc1ccccc1)c1ccccc1 [Compound 22]			90%		
CCCCCCCCCCCCOc1ccc(C=CC(C)=NNC(=N)SC)cc1 [Compound 46]	> 11.7	85.2 µg/mL (≈ 204 µM)	77%	> 1000 µg/mL	virucidal index [4]: > 31.6; EC50 [4]: 31.6 µg/mL (≈ 75.7 µM)
CCCCOc1ccc(C=CC(C)=NNC(=N)SC)cc1 [Compound 44]			100%		
CCOc1ccc(C(C)=NNC(=N)SC)cc1 [Compound 37]	7.1	12.5 µg/mL (≈ 49.7 µM)	89%	88.8 µg/mL (≈ 353 µM)	
CSC(=N)NN=Cc1cccc(Br)c1 [Compound 16]			100%		
CSC(=N)NN=Cc1ccccc1 [Compound 1]			90%		
CSC(=N)NN=C(C)c1cccc(Cl)c1 [Compound 24]	28.3	25 µg/mL (≈ 103 µM)	89%	708 µg/mL (≈ 2930 µM)	virucidal index [4]: 3.3; EC50 [4]: 215 µg/mL (≈ 889 µM)
CCC(=NNC(=N)SC)c1ccc(Cl)cc1 [Compound 26]			100%		
N=C(NN=Cc1ccccc1)SCc1ccccc1 [Compound 2, Benzaldehyde-S-benzylisothiosemicarbazone Hydrochloride]			85%		
CCCCCCCCOc1ccc(C(C)=NNC(=N)SC)cc1 [Compound 40]			85%		
CN=C(NN=Cc1ccc(Cl)cc1)SC [Compound 7]			75%		
CCOc1ccc(C=CC(C)=NNC(=N)SC)cc1 [Compound 43]	7.1	141 µg/mL (≈ 508 µM)	100%	> 1000 µg/mL	effect against plant pathogenic fungi in vitro (plant pathogenic fungi): never been observed to have effects of inhibiting proliferation of any of the pathogenic fungi; also recorded: inactive against all of the plant pathogenic fungi; Protective Value [3]: 97%; controlling effect against rice blast [3]: very excellent controlling effects; virucidal index [4]: 3.2; EC50 [4]: 316 µg/mL (≈ 1140 µM)
CSC(=N)NN=C(C)c1ccccc1 [Compound 21]	12.6	12.5 µg/mL (≈ 60.3 µM)	100%	158 µg/mL (≈ 760 µM)	
CCCC(=NNC(=NC)SC)c1ccc(Cl)cc1 [Compound 28]	12.6	63 µg/mL (≈ 222 µM)	94%	794 µg/mL (≈ 2800 µM)	
CSC(=N)NN=Cc1ccc(Cl)cc1 [Compound 6, 4'-Chlorobenzaldehyde-S-methylisothiosemicarbazone Hydrochloride]			100%		
